Test system: NOMO1
Assay: cell viability relative to DMSO control; higher = less cytotoxic
Conditions: 48 h
Summary of the method: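 Three leukemia lines were tested: NOMO1 and SEM at 500 cells/well and P12-Ichikawa at 1000 cells/well. Each was adapted for at least four passages in each medium and seeded in 5 μl in 1536-well plates, and library compounds in DMSO were pin-dosed from 47 μM to 0.79 nM in 11 threefold steps. After 48 h at 37°C, CellTiter-Glo One luminescence was read. Viability is a percentage relative to DMSO wells on each plate, with cell-free wells as background.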

[1] = HPLM + 10% dialyzed FBS, 0.000781 µM
[2] = HPLM + 10% dialyzed FBS, 0.00234 µM
[3] = HPLM + 10% dialyzed FBS, 0.00702 µM
[4] = HPLM + 10% dialyzed FBS, 0.0211 µM
[5] = HPLM + 10% dialyzed FBS, 0.0632 µM
[6] = HPLM + 10% dialyzed FBS, 0.19 µM
[7] = HPLM + 10% dialyzed FBS, 0.569 µM
[8] = HPLM + 10% dialyzed FBS, 1.71 µM
[9] = HPLM + 10% dialyzed FBS, 5.12 µM
[10] = HPLM + 10% dialyzed FBS, 15.4 µM
[11] = HPLM + 10% dialyzed FBS, 46.1 µM
[12] = RPMI 5 mM glucose + 10% FBS, 0.000781 µM
[13] = RPMI 5 mM glucose + 10% FBS, 0.00234 µM
[14] = RPMI 5 mM glucose + 10% FBS, 0.00702 µM
[15] = RPMI 5 mM glucose + 10% FBS, 0.0211 µM
[16] = RPMI 5 mM glucose + 10% FBS, 0.0632 µM
[17] = RPMI 5 mM glucose + 10% FBS, 0.19 µM
[18] = RPMI 5 mM glucose + 10% FBS, 0.569 µM
[19] = RPMI 5 mM glucose + 10% FBS, 1.71 µM
[20] = RPMI 5 mM glucose + 10% FBS, 5.12 µM
[21] = RPMI 5 mM glucose + 10% FBS, 15.4 µM
[22] = RPMI 5 mM glucose + 10% FBS, 46.1 µM
[23] = RPMI 5 mM glucose + 10% dialyzed FBS, 0.000781 µM
[24] = RPMI 5 mM glucose + 10% dialyzed FBS, 0.00234 µM
[25] = RPMI 5 mM glucose + 10% dialyzed FBS, 0.00702 µM
[26] = RPMI 5 mM glucose + 10% dialyzed FBS, 0.0211 µM
[27] = RPMI 5 mM glucose + 10% dialyzed FBS, 0.0632 µM
[28] = RPMI 5 mM glucose + 10% dialyzed FBS, 0.19 µM
[29] = RPMI 5 mM glucose + 10% dialyzed FBS, 0.569 µM
[30] = RPMI 5 mM glucose + 10% dialyzed FBS, 1.71 µM
[31] = RPMI 5 mM glucose + 10% dialyzed FBS, 5.12 µM
[32] = RPMI 5 mM glucose + 10% dialyzed FBS, 15.4 µM
[33] = RPMI 5 mM glucose + 10% dialyzed FBS, 46.1 µM

Row | SMILES | cell viability [1] [%] | cell viability [2] [%] | cell viability [3] [%] | cell viability [4] [%] | cell viability [5] [%] | cell viability [6] [%] | cell viability [7] [%] | cell viability [8] [%] | cell viability [9] [%] | cell viability [10] [%] | cell viability [11] [%] | cell viability [12] [%] | cell viability [13] [%] | cell viability [14] [%] | cell viability [15] [%] | cell viability [16] [%] | cell viability [17] [%] | cell viability [18] [%] | cell viability [19] [%] | cell viability [20] [%] | cell viability [21] [%] | cell viability [22] [%] | cell viability [23] [%] | cell viability [24] [%] | cell viability [25] [%] | cell viability [26] [%] | cell viability [27] [%] | cell viability [28] [%] | cell viability [29] [%] | cell viability [30] [%] | cell viability [31] [%] | cell viability [32] [%] | cell viability [33] [%]
1 | CC1(C)O[C@@H]2C[C@H]3[C@@H]4C[C@H](F)C5=CC(=O)C=C[C@]5(C)[C@@]4(F)[C@@H](O)C[C@]3(C)[C@]2(C(=O)CO)O1 | 105 | 112 | 121 | 122 | 121 | 101 | 101 | 118 | 112 | 108 | 94 | 115 | 101 | 108 | 108 | 112 | 114 | 106 | 102 | 104 | 97.9 | 91.7 | 109 | 109 | 98.3 | 114 | 112 | 102 | 96.7 | 102 | 110 | 97.8 | 86.5
2 | CNC(=O)c1ccc(N2C(=S)N(c3cnc(C#N)c(C(F)(F)F)c3)C(=O)C23CCC3)cc1F | 79.6 | 114 | 103 | 115 | 110 | 116 | 102 | 89.8 | 69.7 | 64.8 | 50.2 | 84.9 | 113 | 111 | 104 | 105 | 111 | 96.3 | 83.4 | 79 | 73.2 | 60.2 | 88 | 109 | 107 | 104 | 99.1 | 121 | 123 | 104 | 73.3 | 74 | 74.2
3 | N[S+]([O-])(=O)C1=C(Cl)C=C2\N=C/N[S+]([O-])(=O)C2=C1 | 109 | 109 | 119 | 122 | 114 | 121 | 118 | 119 | 109 | 116 | 124 | 94.2 | 100 | 109 | 100 | 112 | 105 | 112 | 107 | 114 | 99.5 | 101 | 101 | 105 | 106 | 112 | 112 | 108 | 102 | 105 | 112 | 105 | 105
4 | C[C@H]1C[C@@H]2[C@H](CC[C@@]3(C)[C@H]2CC[C@]3(OC(C)=O)C(C)=O)[C@@]\4(C)CCC(=O)\C=C14 | 95.2 | 112 | 116 | 112 | 119 | 110 | 125 | 123 | 120 | 81.3 | 118 | 103 | 103 | 103 | 101 | 99.5 | 107 | 128 | 117 | 101 | 95.9 | 103 | 86.7 | 98.7 | 109 | 88.5 | 101 | 98.8 | 104 | 98 | 103 | 88.7 | 112
5 | CCc1ccc(CCOc2ccc(CC3SC(=O)NC3=O)cc2)nc1 (stereo not drawn) | 125 | 106 | 119 | 134 | 130 | 113 | 111 | 112 | 96.7 | 114 | 106 | 112 | 123 | 129 | 120 | 107 | 112 | 99 | 121 | 106 | 107 | 106 | – | – | – | – | – | – | – | – | – | – | –
6 | COc1ccc(-c2ccc3ncc4c(c3c2)n(-c2ccc(N3CCNCC3)c(C(F)(F)F)c2)c(=O)n4C)cn1 | 97.7 | 79.7 | 57.1 | 67 | 51.5 | 45.9 | 47.4 | 24.6 | 4.81 | 3.74 | 2.4 | 105 | 100 | 90.4 | 79.7 | 70 | 54.5 | 49.1 | 32.6 | 32 | 4.07 | 3.17 | 94.5 | 78.3 | 70.9 | 70.5 | 57 | 46.1 | 42.9 | 29.8 | 5.1 | 3.25 | 1.92
7 | COC\1=C(/OC)C(=O)\C(=C(C)/C1=O)CCCCCCCCCCO | 97.4 | 132 | 118 | 148 | 114 | 134 | 153 | 154 | 148 | 122 | 61.6 | – | – | – | – | – | – | – | – | – | – | – | – | – | – | – | – | – | – | – | – | – | –
8 | Clc1ccc(-c2nc3sccn3c2/C=N/OCc2ccc(Cl)c(Cl)c2)cc1 | 122 | 113 | 128 | 126 | 125 | 110 | 109 | 108 | 99.6 | 101 | 122 | 121 | 114 | 117 | 120 | 112 | 109 | 101 | 104 | 117 | 103 | 108 | 101 | 110 | 123 | 125 | 114 | 98 | 113 | 114 | 111 | 99.8 | 111
9 | Cn1cnc2c(F)c(Nc3ccc(Br)cc3F)c(C(=O)NOCCO)cc21 | 91.4 | 83.3 | 95.9 | 27.1 | 62.4 | 56.4 | 57.7 | 41.4 | 34.3 | 40 | 35.3 | 83.3 | 80.2 | 82.4 | 16.4 | 75.5 | 66.2 | 50.2 | 42.6 | 37.5 | 31.2 | 36.5 | 77.1 | 90.2 | 98.7 | 37.9 | 75.3 | 49.6 | 45.4 | 40.5 | 39.6 | 34.5 | 34.6
10 | CCC[S+]([O-])c1ccc2[nH]c(NC(=O)OC)nc2c1 (stereo not drawn) | 102 | 81.8 | 100 | 106 | 98.5 | 109 | 95 | 79.5 | 93.5 | 72.2 | 18.7 | 88.2 | 96.6 | 94.2 | 103 | 101 | 89.9 | 101 | 82 | 93.8 | 71.2 | 15.5 | 94.5 | 91.3 | 94.7 | 87.4 | 84.9 | 88.8 | 81.7 | 76.4 | 81.2 | 58.4 | 19.4
11 | OC(c1cc(C(F)(F)F)nc2c(C(F)(F)F)cccc12)C1CCCCN1 (stereo not drawn) | 117 | 124 | 115 | 127 | 146 | 150 | 158 | 142 | 143 | 114 | 8.46 | – | – | – | – | – | – | – | – | – | – | – | – | – | – | – | – | – | – | – | – | – | –
12 | CC(C)c1nc(CN(C)C(=O)N[C@H](C(=O)N[C@@H](Cc2ccccc2)C[C@H](O)[C@H](Cc2ccccc2)NC(=O)OCc2cncs2)C(C)C)cs1 | 92.4 | 107 | 100 | 95.3 | 89.9 | 88.9 | 98.5 | 70.5 | 94.4 | 80.7 | 74.3 | 75.3 | 75.3 | 78.5 | 81.2 | 77.4 | 80.2 | 77.6 | 79.3 | 79.9 | 75.7 | 79 | 86.5 | 80.7 | 93 | 90.6 | 92.8 | 83.2 | 81.7 | 77.1 | 84.9 | 79.2 | 77.1
13 | c1ccc(CCCN2CCN(CCOC(c3ccccc3)c3ccccc3)CC2)cc1 | 91.4 | 95.1 | 101 | 100 | 85 | 100 | 92.9 | 103 | 83.1 | 78.9 | 53.9 | 80.3 | 83.3 | 96 | 99.5 | 94.9 | 90.3 | 85.6 | 76.1 | 83.3 | 78 | 73.8 | 89.3 | 97.3 | 92.7 | 96.5 | 89.7 | 92.5 | 85.5 | 86.2 | 86.3 | 66.8 | 24.3
14 | CCN(CC)CCCCNc1ncc2cc(-c3cc(OC)cc(OC)c3)c(NC(=O)NC(C)(C)C)nc2n1 | 122 | 136 | 125 | 113 | 111 | 108 | 94.8 | 86.8 | 104 | 83.8 | 33.2 | – | – | – | – | – | – | – | – | – | – | – | – | – | – | – | – | – | – | – | – | – | –
15 | COC(=O)C[C@](O)(CCCC(C)(C)O)C(=O)O[C@@H]1C(OC)=CC23CCCN2CCc2cc4c(cc2[C@H]13)OCO4 (stereo partly drawn) | 114 | 111 | 105 | 108 | 118 | 107 | 117 | 97.1 | 96 | 105 | 96.6 | 97.1 | 93.4 | 96.3 | 102 | 107 | 98.4 | 105 | 101 | 88.4 | 93.6 | 90.1 | 102 | 105 | 104 | 111 | 108 | 109 | 101 | 100 | 102 | 103 | 97.8
16 | CC(C)(C)NC(=O)Nc1cccc(Nc2ncc(F)c(NC(C)(C)CO)n2)c1 | 99.9 | 115 | 133 | 140 | 112 | 137 | 122 | 130 | 127 | 111 | 108 | 123 | 115 | 127 | 112 | 135 | 112 | 120 | 133 | 111 | 69.8 | 98.4 | – | – | – | – | – | – | – | – | – | – | –
17 | CC(C)(C)OC(=O)N[C@H]1CCCCC/C=C\[C@@H]2C[C@@]2(C(=O)N[S+](=O)([O-])C2CC2)NC(=O)[C@@H]2C[C@@H](OC(=O)N3Cc4cccc(F)c4C3)CN2C1=O | 125 | 115 | 124 | 114 | 108 | 121 | 103 | 120 | 114 | 111 | 111 | 96.8 | 93.3 | 97.2 | 100 | 114 | 106 | 113 | 99.9 | 94 | 101 | 102 | 97.4 | 92.7 | 111 | 98.5 | 110 | 100 | 123 | 109 | 104 | 90.1 | 103

From the supplement of paper PMC11451515
